Reference: US20210007356A1, “IMIDE DERIVATIVE AND FUNGICIDE CONTAINING SAID DERIVATIVE AS ACTIVE INGREDIENT” (HOKKO CHEMICAL INDUSTRY CO., LTD., priority 2018, published 2021)

Tests used:
[1] = tested on: barley powdery mildew fungus (Erysiphe graminis); experiment: Test Example 2: control effect against barley powdery mildew by foliage application; format: in vivo; conditions: wettable powder diluted to 100 ppm, 10 mL per pot foliage spray on barley; inoculated day after; 7 days after inoculation
[2] = tested on: rice sheath blight fungus (Thanatephorus cucumeris); experiment: Test Example 8: control effect against rice sheath blight by box treatment (granule); conditions: 5 g of granule on nursery box, paddy rice; inoculated after 3 weeks; 7 days after inoculation
[3] = tested on: rice sheath blight fungus (Thanatephorus cucumeris); experiment: Test Example 6: control effect against rice sheath blight by box treatment (flowable formulation); conditions: flowable 5,000 ppm, 50 mL irrigation of nursery box, paddy rice; inoculated after 3 weeks; 7 days after inoculation
[4] = tested on: rice sheath blight fungus (Thanatephorus cucumeris); experiment: Test Example 10: control effect against rice sheath blight by water surface application (flowable formulation); conditions: flowable 1,000 ppm, 1 mL dripped in paddy water, inoculated after 1 week, 7 days after inoculation

`Cn1cc(C(=O)N(C(=O)c2cccc3nnsc23)c2ccccc2-c2cc(F)c(F)c(F)c2)c(C(F)F)n1` [1-369] was tested, and the “evaluation value of control effect (from control value, lesion area percentage)” value [1] was 4, the “evaluation value of control effect (from control value, lesion height)” value [2] was 5 and the “evaluation value of control effect (from control value, lesion height)” value [3] was 5. The “evaluation value of control effect (from control value, lesion height)” value [4] was 5.

In the case of `Cc1nc(C(F)F)c(C(=O)N(C(=O)c2cn(C)nc2C(F)F)c2ccccc2-c2cc(F)c(F)c(F)c2)s1` [1-372], the “evaluation value of control effect (from control value, lesion area percentage)” value [1] is reported as 4, the “evaluation value of control effect (from control value, lesion height)” value [2] is reported as 5 and the “evaluation value of control effect (from control value, lesion height)” value [3] is reported as 5. The “evaluation value of control effect (from control value, lesion height)” value [4] was 5.

For `Cn1cc(C(=O)N(C(=O)c2cc(Cl)c(Cl)s2)c2ccccc2-c2cc(F)c(F)c(F)c2)c(C(F)F)n1` [1-373], the “evaluation value of control effect (from control value, lesion area percentage)” value [1] was 4, the “evaluation value of control effect (from control value, lesion height)” value [2] was 5 and the “evaluation value of control effect (from control value, lesion height)” value [3] was 5. For the same molecule, the “evaluation value of control effect (from control value, lesion height)” value [4] was 5.

With `Cc1nnsc1C(=O)N(C(=O)c1cn(C)nc1C(F)F)c1cccc2c1C(C)CC2(C)C` (stereo not drawn) [25-47] the “evaluation value of control effect (from control value, lesion area percentage)” value [1] was 4, the “evaluation value of control effect (from control value, lesion height)” value [2] was 5 and the “evaluation value of control effect (from control value, lesion height)” value [3] was 5. For the same molecule, the “evaluation value of control effect (from control value, lesion height)” value [4] was 5.

With `CCc1nc(C(F)F)c(C(=O)N(C(=O)c2cn(C)nc2C(F)F)c2cccc3c2C(C)CC3(C)C)s1` (stereo not drawn) [25-85] the “evaluation value of control effect (from control value, lesion area percentage)” value [1] was 4, the “evaluation value of control effect (from control value, lesion height)” value [2] was 5 and the “evaluation value of control effect (from control value, lesion height)” value [3] was 5. The “evaluation value of control effect (from control value, lesion height)” value [4] was 5.

In the case of `Cc1nc(C(F)(F)F)c(C(=O)N(C(=O)c2cn(C)nc2C(F)F)c2cccc3c2C(C)OC3(C)C)s1` (stereo not drawn) [25-92], the “evaluation value of control effect (from control value, lesion area percentage)” value [1] is reported as 4, the “evaluation value of control effect (from control value, lesion height)” value [2] is reported as 5 and the “evaluation value of control effect (from control value, lesion height)” value [3] is reported as 5. For the same molecule, the “evaluation value of control effect (from control value, lesion height)” value [4] was 5.

With `CC1CC(C)(C)c2cccc(N(C(=O)c3cn(C)nc3C(F)F)C(=O)c3onc(Cl)c3Cl)c21` (stereo not drawn) [25-113] the “evaluation value of control effect (from control value, lesion area percentage)” value [1] was 4, the “evaluation value of control effect (from control value, lesion height)” value [2] was 5 and the “evaluation value of control effect (from control value, lesion height)” value [3] was 5. The “evaluation value of control effect (from control value, lesion height)” value [4] was 5.

With `Cc1nnsc1C(=O)N(C(=O)c1c(C)nn(C)c1Cl)c1cccc2c1C(C)OC2(C)C` (stereo not drawn) [25-116] the “evaluation value of control effect (from control value, lesion area percentage)” value [1] was 4, the “evaluation value of control effect (from control value, lesion height)” value [2] was 5 and the “evaluation value of control effect (from control value, lesion height)” value [3] was 5. The “evaluation value of control effect (from control value, lesion height)” value [4] was 5.

`Cc1nn(C)c(Cl)c1C(=O)N(C(=O)c1onc(Cl)c1Cl)c1cccc2c1C(C)OC2(C)C` (stereo not drawn) [25-124] was tested, and the “evaluation value of control effect (from control value, lesion area percentage)” value [1] was 4, the “evaluation value of control effect (from control value, lesion height)” value [2] was 5 and the “evaluation value of control effect (from control value, lesion height)” value [3] was 5. For the same molecule, the “evaluation value of control effect (from control value, lesion height)” value [4] was 5.

With `Cc1nc(C(F)F)c(C(=O)N(C(=O)c2snc(Cl)c2Cl)c2cccc3c2C(C)CC3(C)C)s1` (stereo not drawn) [26-8] the “evaluation value of control effect (from control value, lesion area percentage)” value [1] was 5, the “evaluation value of control effect (from control value, lesion height)” value [2] was 5 and the “evaluation value of control effect (from control value, lesion height)” value [3] was 5. The “evaluation value of control effect (from control value, lesion height)” value [4] was 5.

For `Cc1nc(C(F)F)c(C(=O)N(C(=O)c2sc(C)nc2C(F)F)c2cccc3c2C(C)CC3(C)C)s1` (stereo not drawn) [26-77], the “evaluation value of control effect (from control value, lesion area percentage)” value [1] was 4, the “evaluation value of control effect (from control value, lesion height)” value [2] was 5 and the “evaluation value of control effect (from control value, lesion height)” value [3] was 5. For the same molecule, the “evaluation value of control effect (from control value, lesion height)” value [4] was 5.

For `Cc1nc(C(F)F)c(C(=O)N(C(=O)c2cc(Cl)no2)c2cccc3c2C(C)CC3(C)C)s1` (stereo not drawn) [26-88], the “evaluation value of control effect (from control value, lesion area percentage)” value [1] was 4, the “evaluation value of control effect (from control value, lesion height)” value [2] was 5 and the “evaluation value of control effect (from control value, lesion height)” value [3] was 5. The “evaluation value of control effect (from control value, lesion height)” value [4] was 5.
